# Reference: ChEMBL document CHEMBL3991601, “The target landscape of clinical kinase drugs” (Science, 2017)
# Active and inactive are the calls of the source.
# Key:
# [1] = molecular target: T1, Mitogen-activated protein kinase kinase kinase 2 (Homo sapiens, UniProt Q9Y2U5)
# T1 sequence (Q9Y2U5 whole entry): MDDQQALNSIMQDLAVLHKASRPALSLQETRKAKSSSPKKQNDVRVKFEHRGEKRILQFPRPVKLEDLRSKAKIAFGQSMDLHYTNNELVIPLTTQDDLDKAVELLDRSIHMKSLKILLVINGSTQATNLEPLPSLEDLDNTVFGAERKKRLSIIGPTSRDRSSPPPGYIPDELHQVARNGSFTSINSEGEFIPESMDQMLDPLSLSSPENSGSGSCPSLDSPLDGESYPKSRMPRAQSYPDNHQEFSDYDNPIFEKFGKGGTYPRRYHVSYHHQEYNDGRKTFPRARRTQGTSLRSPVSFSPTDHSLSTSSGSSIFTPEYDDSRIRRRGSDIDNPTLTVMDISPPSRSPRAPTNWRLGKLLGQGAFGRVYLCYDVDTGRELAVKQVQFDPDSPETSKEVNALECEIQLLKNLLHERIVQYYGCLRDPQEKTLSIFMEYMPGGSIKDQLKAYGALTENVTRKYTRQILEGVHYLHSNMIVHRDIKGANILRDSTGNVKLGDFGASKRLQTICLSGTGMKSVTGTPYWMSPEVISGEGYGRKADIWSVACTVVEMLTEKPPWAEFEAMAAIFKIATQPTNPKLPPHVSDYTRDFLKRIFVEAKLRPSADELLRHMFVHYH
# [2] = molecular target: Serine/threonine-protein kinase/endoribonuclease IRE2 (Homo sapiens, UniProt Q76MJ5)
# Serine/threonine-protein kinase/endoribonuclease IRE2, sequence (Q76MJ5 whole entry): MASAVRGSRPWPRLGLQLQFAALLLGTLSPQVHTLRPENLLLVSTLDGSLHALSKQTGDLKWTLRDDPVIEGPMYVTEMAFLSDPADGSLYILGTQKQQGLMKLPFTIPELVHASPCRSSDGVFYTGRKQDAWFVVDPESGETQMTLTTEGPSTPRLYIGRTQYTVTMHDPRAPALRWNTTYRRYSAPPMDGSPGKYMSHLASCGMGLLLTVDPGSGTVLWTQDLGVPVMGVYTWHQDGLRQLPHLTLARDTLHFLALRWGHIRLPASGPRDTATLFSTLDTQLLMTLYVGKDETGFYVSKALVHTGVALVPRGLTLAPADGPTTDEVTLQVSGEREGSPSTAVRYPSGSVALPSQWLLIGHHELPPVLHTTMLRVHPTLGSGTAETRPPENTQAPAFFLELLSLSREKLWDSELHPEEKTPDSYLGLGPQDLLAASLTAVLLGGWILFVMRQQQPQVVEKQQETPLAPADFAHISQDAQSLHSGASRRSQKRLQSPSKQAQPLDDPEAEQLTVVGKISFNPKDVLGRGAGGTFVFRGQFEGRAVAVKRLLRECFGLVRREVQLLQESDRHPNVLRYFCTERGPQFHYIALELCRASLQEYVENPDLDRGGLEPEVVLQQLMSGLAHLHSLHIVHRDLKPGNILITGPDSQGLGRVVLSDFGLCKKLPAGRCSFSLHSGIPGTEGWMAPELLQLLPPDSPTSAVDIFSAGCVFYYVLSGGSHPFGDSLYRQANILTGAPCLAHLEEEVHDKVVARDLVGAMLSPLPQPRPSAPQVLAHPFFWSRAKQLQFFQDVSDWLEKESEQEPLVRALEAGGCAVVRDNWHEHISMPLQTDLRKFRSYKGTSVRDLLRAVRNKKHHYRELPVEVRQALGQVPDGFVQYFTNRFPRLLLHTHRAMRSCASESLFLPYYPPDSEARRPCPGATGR
# [3] = molecular target: Mitogen-activated protein kinase 3 (Homo sapiens, UniProt P27361)
# Mitogen-activated protein kinase 3, sequence (P27361 whole entry): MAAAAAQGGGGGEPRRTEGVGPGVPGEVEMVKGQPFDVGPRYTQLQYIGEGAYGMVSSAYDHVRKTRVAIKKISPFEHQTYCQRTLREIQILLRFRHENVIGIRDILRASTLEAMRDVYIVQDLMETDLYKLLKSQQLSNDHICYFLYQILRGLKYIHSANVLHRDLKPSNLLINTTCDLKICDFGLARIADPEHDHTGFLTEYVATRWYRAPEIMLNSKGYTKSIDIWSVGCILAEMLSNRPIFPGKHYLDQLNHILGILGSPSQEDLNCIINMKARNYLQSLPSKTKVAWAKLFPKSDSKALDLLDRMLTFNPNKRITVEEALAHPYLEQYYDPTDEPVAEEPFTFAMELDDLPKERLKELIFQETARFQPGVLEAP
# [4] = molecular target: Interleukin-1 receptor-associated kinase 1 (Homo sapiens, UniProt P51617)
# Interleukin-1 receptor-associated kinase 1, sequence (P51617 whole entry): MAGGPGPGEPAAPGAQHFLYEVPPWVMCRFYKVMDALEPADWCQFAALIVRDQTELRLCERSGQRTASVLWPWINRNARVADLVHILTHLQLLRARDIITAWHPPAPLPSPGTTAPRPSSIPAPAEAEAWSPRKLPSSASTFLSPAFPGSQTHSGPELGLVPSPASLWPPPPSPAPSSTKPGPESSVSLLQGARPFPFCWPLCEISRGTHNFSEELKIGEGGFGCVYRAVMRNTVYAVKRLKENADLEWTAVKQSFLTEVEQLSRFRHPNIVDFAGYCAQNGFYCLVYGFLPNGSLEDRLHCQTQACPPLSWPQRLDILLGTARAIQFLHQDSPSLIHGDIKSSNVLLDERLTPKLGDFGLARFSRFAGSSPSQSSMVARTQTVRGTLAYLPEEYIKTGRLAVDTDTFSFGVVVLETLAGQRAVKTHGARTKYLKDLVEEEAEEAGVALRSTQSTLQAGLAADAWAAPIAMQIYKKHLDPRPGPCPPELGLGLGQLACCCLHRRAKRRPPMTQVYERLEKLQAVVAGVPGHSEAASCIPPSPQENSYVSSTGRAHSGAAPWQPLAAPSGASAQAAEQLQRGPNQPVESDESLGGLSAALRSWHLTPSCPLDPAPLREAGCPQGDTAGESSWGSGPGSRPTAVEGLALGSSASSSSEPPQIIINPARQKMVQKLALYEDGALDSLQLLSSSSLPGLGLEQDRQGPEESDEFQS
# [5] = molecular target: T2, Activin receptor type-1 (Homo sapiens, UniProt Q04771)
# T2 sequence (Q04771 whole entry): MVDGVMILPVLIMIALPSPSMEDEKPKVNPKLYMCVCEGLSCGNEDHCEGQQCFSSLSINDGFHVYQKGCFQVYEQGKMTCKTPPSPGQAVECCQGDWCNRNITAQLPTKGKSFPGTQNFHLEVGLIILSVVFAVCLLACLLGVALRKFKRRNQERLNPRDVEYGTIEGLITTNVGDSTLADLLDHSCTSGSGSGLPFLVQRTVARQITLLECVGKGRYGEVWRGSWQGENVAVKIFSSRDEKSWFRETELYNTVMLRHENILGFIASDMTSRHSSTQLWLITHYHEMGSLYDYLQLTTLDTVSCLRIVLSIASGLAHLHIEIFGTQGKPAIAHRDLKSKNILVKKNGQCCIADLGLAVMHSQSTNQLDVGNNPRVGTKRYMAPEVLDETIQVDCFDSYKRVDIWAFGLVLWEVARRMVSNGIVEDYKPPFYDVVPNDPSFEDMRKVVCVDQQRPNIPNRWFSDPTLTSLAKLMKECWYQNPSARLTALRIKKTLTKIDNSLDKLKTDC
# [6] = molecular target: Protein-tyrosine kinase 2-beta (Homo sapiens, UniProt Q14289)
# Protein-tyrosine kinase 2-beta, sequence (Q14289 whole entry): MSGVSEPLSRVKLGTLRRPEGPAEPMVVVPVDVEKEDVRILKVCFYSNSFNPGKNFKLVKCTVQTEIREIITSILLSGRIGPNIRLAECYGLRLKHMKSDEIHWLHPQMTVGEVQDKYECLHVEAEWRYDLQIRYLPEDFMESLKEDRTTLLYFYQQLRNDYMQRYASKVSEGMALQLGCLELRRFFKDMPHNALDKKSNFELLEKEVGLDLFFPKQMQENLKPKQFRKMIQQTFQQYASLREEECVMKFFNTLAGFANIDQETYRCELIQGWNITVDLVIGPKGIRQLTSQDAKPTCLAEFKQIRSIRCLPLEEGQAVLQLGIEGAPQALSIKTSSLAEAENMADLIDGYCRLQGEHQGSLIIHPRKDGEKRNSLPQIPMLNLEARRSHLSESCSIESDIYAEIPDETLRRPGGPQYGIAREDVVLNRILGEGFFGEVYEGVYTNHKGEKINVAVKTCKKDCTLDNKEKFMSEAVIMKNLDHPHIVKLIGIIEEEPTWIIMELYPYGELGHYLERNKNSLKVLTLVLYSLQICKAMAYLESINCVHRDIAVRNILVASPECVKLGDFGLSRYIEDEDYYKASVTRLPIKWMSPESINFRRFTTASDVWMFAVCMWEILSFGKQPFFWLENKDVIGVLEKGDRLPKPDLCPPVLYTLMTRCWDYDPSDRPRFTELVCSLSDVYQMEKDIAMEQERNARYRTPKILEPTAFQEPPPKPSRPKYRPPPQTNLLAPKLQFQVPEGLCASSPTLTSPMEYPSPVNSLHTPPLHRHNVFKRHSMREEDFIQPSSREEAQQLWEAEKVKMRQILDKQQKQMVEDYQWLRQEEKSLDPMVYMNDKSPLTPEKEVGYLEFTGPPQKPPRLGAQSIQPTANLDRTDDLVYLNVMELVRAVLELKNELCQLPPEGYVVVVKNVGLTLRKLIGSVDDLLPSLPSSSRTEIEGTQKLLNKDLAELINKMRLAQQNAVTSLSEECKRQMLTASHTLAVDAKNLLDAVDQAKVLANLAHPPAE
# [7] = molecular target: T3, Serine/threonine-protein kinase STK11 (Homo sapiens, UniProt Q15831)
# T3 sequence (Q15831 whole entry): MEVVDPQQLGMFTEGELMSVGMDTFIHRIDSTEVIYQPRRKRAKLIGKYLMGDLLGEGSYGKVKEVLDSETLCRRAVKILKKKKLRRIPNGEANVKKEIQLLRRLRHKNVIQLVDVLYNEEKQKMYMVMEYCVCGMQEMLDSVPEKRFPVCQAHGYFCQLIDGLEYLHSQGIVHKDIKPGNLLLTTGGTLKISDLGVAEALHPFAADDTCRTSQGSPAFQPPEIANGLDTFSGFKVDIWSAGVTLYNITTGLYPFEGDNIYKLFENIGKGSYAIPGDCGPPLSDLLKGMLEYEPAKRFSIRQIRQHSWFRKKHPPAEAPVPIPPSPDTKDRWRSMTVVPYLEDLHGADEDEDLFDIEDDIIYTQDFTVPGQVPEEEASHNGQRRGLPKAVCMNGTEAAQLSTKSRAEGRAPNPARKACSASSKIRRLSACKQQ
# [8] = molecular target: cAMP-dependent protein kinase type II-alpha regulatory subunit (Homo sapiens, UniProt P13861)
# cAMP-dependent protein kinase type II-alpha regulatory subunit, sequence (P13861 whole entry): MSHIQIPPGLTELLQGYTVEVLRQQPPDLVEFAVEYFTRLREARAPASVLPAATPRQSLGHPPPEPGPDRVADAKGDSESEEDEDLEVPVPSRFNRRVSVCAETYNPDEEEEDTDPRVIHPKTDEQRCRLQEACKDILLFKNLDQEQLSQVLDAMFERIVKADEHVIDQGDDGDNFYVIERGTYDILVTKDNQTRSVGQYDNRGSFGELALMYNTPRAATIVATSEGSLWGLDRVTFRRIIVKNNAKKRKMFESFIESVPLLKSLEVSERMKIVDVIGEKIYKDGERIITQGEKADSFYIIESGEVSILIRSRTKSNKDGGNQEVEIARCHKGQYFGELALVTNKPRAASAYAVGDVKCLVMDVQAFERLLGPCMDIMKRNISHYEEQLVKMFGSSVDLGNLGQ
# Note: in the data inactive means no Kd found up to 30 µM.
SMILES,Kd [1],Kd [2],Kd [3],Kd [4],Kd [5],Kd [6],Kd [7],Kd [8]
C[C@@H](Oc1cc(C(=O)Nc2ccc(C(=O)N3CCN(C)CC3)cc2)nnc1N)c1c(Cl)ccc(F)c1Cl,> 30 µM (inactive),> 30 µM (inactive),> 30 µM (inactive),> 30 µM (inactive),> 30 µM (inactive),> 30 µM (inactive),,
CC(=O)c1cnc2ccc(-c3cc(Cl)c(O)c(Cl)c3)nc2c1N[C@H]1CC[C@H](CN(C)C)CC1,,> 30 µM (inactive),> 30 µM (inactive),,0.222 µM (active),0.03 µM (active),> 30 µM (inactive),> 30 µM (inactive)
C=CC(=O)Nc1cc2c(Nc3ccc(F)c(Cl)c3)ncnc2cc1C#CC(C)(C)N1CCN(C)CC1 [AV-412 FREE BASE],> 30 µM (inactive),> 30 µM (inactive),> 30 µM (inactive),> 30 µM (inactive),> 30 µM (inactive),> 30 µM (inactive),> 30 µM (inactive),> 30 µM (inactive)
COc1cc([C@@H]2c3cc4c(cc3[C@H](O)[C@H]3COC(=O)[C@@H]23)OCO4)cc(OC)c1OC [AXL-1717],> 30 µM (inactive),> 30 µM (inactive),> 30 µM (inactive),> 30 µM (inactive),> 30 µM (inactive),> 30 µM (inactive),> 30 µM (inactive),> 30 µM (inactive)
COc1c(OCCCN2CCOCC2)ccc2c1N=C(NC(=O)c1cnc(N)nc1)N1CCN=C21 [COPANLISIB],> 30 µM (inactive),> 30 µM (inactive),> 30 µM (inactive),> 30 µM (inactive),> 30 µM (inactive),> 30 µM (inactive),> 30 µM (inactive),> 30 µM (inactive)
Cn1cc(C2=C(c3cn(C4CCN(Cc5ccccn5)CC4)c4ccccc34)C(=O)NC2=O)c2ccccc21 [ENZASTAURIN],,> 30 µM (inactive),,,,,,> 30 µM (inactive)
Cc1nc2cc(-n3ncc(C(=O)c4cc5ccccc5[nH]4)c3N)ccc2[nH]1 [FGFR INHIBITOR DEBIO 1347],> 30 µM (inactive),> 30 µM (inactive),> 30 µM (inactive),> 30 µM (inactive),> 30 µM (inactive),> 30 µM (inactive),> 30 µM (inactive),> 30 µM (inactive)
O=C(Nc1nc2cccc(-c3ccc(CN4CCS(=O)(=O)CC4)cc3)n2n1)C1CC1 [FILGOTINIB],> 30 µM (inactive),> 30 µM (inactive),> 30 µM (inactive),4.71 µM (active),> 30 µM (inactive),> 30 µM (inactive),> 30 µM (inactive),> 30 µM (inactive)
Cc1cccc(-c2nn3c(c2-c2ccnc4ccc(C(N)=O)cc24)CCC3)n1 [GALUNISERTIB],> 30 µM (inactive),> 30 µM (inactive),> 30 µM (inactive),> 30 µM (inactive),> 30 µM (inactive),> 30 µM (inactive),> 30 µM (inactive),> 30 µM (inactive)

# More lines, now with the values ahead:
Kd [1],Kd [2],Kd [3],Kd [4],Kd [5],Kd [6],Kd [7],Kd [8],SMILES
> 30 µM (inactive),> 30 µM (inactive),> 30 µM (inactive),> 30 µM (inactive),1.2 µM (active),> 30 µM (inactive),> 30 µM (inactive),> 30 µM (inactive),Nc1ncnc2c1c(-c1cccc(OCc3ccccc3)c1)cn2[C@H]1C[C@@H](CN2CCC2)C1 [AEW-541]
> 30 µM (inactive),> 30 µM (inactive),> 30 µM (inactive),> 30 µM (inactive),,> 30 µM (inactive),> 30 µM (inactive),> 30 µM (inactive),CCn1cc(-c2ccnc3[nH]c(-c4cccc(CN(C)C)c4)cc23)c(-c2ccc(NC(=O)N(C)C)cc2)n1 [GSK-1070916]
,> 30 µM (inactive),,,,,,> 30 µM (inactive),O=C(NOCCO)c1cc(CN2OCCCC2=O)c(F)c(F)c1Nc1ccc(I)cc1F [RO-4987655]
> 30 µM (inactive),> 30 µM (inactive),> 30 µM (inactive),> 30 µM (inactive),> 30 µM (inactive),> 30 µM (inactive),> 30 µM (inactive),,C[C@@H](N)c1ccc(C(=O)Nc2ccnc3[nH]ccc23)cc1 [Y-39983]
